Legend:
Mus musculus [1] = experiment: Effective dose required to determine the oral activity in the mouse LPS-induced TNF alpha assay at a dose of 50 mg/kg; assay type: functional
MAP kinase p38 = MAP kinase p38 (Homo sapiens, UniProt O15264+Q15759+Q16539+P53778); experiment: Compound was tested for inhibition of p38 MAP kinase; assay type: protein assay
Mus musculus [2] = organism: Mus musculus; experiment: Effective dose required to determine the oral activity in the mouse LPS-induced TNF alpha assay; assay type: functional
CYP2D6 = CYP2D6 (Homo sapiens, UniProt P10635); experiment: Percent inhibition of human hepatic cytochrome P450 2D6 at 10 uM; assay type: ADME
Chain of CYP2D6 (P10635 whole entry): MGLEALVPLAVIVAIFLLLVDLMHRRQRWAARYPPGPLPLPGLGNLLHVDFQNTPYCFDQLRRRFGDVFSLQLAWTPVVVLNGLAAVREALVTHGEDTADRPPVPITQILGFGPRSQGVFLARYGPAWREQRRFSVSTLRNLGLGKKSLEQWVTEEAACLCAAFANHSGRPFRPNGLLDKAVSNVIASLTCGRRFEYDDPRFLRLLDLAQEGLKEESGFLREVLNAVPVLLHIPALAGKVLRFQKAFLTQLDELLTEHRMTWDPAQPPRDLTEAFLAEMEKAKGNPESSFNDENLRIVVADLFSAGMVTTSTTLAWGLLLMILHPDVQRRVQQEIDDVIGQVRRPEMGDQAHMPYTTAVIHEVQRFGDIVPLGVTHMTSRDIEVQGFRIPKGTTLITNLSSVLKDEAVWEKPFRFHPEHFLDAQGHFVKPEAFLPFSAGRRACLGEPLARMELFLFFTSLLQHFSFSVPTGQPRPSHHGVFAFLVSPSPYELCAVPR

Mus musculus [3] = experiment: Effective dose required to determine the oral activity in the mouse LPS-induced TNF alpha assay at a dose of 50 mg/Kg; assay type: functional

| Structure (SMILES) | inhibition in vivo at 50 mg/kg (Mus musculus [1]) | IC50 (MAP kinase p38) | ED50 (Mus musculus [2]) | inhibition at 10 µM (CYP2D6) | inhibition in vivo at 50 mg/kg (Mus musculus [3]) |
| --- | --- | --- | --- | --- | --- |
| CC(=O)Nc1nccc(-c2c(-c3ccc(F)cc3)ncn2CCCN2CCOCC2)n1 | 12% | 0.46 µM |  |  |  |
| Fc1ccc(-c2ncn(CCCN3CCOCC3)c2-c2ccncn2)cc1 |  |  | 12 mg/kg | 34% |  |
| Nc1nccc(-c2c(-c3ccc(F)cc3)ncn2CCCN2CCOCC2)n1 |  |  |  | 47% |  |
| Fc1ccc(-c2ncn(CCCN3CCOCC3)c2-c2ccncc2)cc1 [SB-210313] |  |  | 42 mg/kg | 86% |  |
| COc1nccc(-c2c(-c3ccc(F)cc3)ncn2CCCN2CCOCC2)n1 |  |  | 14 mg/kg | 7% |  |
| CN(C)c1nccc(-c2c(-c3ccc(F)cc3)ncn2CCCN2CCOCC2)n1 |  | 3.6 µM |  |  |  |
| CSc1nc(N)cc(-c2c(-c3ccc(F)cc3)ncn2CCCN2CCOCC2)n1 |  | > 17 µM |  |  |  |
| COc1cc(-c2c(-c3ccc(F)cc3)ncn2CCCN2CCOCC2)ncn1 |  | > 17 µM |  |  |  |
| C[S+]([O-])c1nccc(-c2c(-c3ccc(F)cc3)ncn2CCCN2CCOCC2)n1 (stereo not drawn) | 37% | 2.2 µM |  |  |  |
| Cc1cc(-c2c(-c3ccc(F)cc3)ncn2CCCN2CCOCC2)cc(C)n1 |  | > 17 µM |  |  |  |
| Nc1cc(-c2c(-c3ccc(F)cc3)ncn2CCCN2CCOCC2)ncn1 |  | > 17 µM |  |  |  |
| CC(=O)Nc1cc(-c2c(-c3ccc(F)cc3)ncn2CCCN2CCOCC2)ncn1 | 21% | 3.5 µM |  |  |  |
| Oc1nccc(-c2c(-c3ccc(F)cc3)ncn2CCCN2CCOCC2)n1 | 33% | 5.5 µM |  |  |  |
| Cc1nccc(-c2c(-c3ccc(F)cc3)ncn2CCCN2CCOCC2)n1 |  | 1.3 µM |  | 19% | 65% |
| CNc1nccc(-c2c(-c3ccc(F)cc3)ncn2CCCN2CCOCC2)n1 |  | 1.9 µM | 19 mg/kg | 11% |  |
| Cc1cc(-c2c(-c3ccc(F)cc3)ncn2CCCN2CCOCC2)ccn1 | 37% | 2.1 µM |  | 51% |  |
| Cc1cc(-c2c(-c3ccc(F)cc3)ncn2CCCN2CCOCC2)nc(N)n1 |  | > 17 µM |  |  |  |
| CSc1nccc(-c2c(-c3ccc(F)cc3)ncn2CCCN2CCOCC2)n1 |  | 2 µM | 43 mg/kg | 47% |  |

Reference: ChEMBL document CHEMBL1130658 (Bioorg Med Chem Lett, 1998)
